Measurements: patent publication US20100004187A1 (priority 2008, published 2010)
Like-named read-outs stand apart in the source and are kept apart here.

Legend:
[1] = system: Francisella tularensis subspecies Novicida; assay type: cell-based
Francisella philomiragia = assay type: cell-based
bacterial growth [2] = assay type: cell-based
lawn of E. coli = assay type: cell-based; conditions: 1.0 tet/0.78 Cohex and 2.0 tet/1.6 mg Cohex disk pairings, overnight at 37° C.
[3] = mouse, in vivo
bacterial growth [4] = conditions: cited from earlier work
[5] = target: CorA of Salmonella typhimurium (Salmonella typhimurium, UniProt P0A2R8); conditions: cited from earlier work
[6] = target: CorA of Methanococcus jannaschii (Methanocaldococcus jannaschii, UniProt Q58439); conditions: cited from earlier work
[7] = system: S. typhimurium strain in which CorA was the only functional Mg2+ transporter; conditions: cited from earlier work
MgtB Mg transporter = MgtB Mg transporter (Salmonella typhimurium, UniProt P22036); conditions: cited from earlier work
TolC (E. coli) = TolC (E. coli) (Escherichia coli, UniProt P02930); conditions: isothermal titration calorimetry; cited from earlier work
Sequence of TolC (E. coli) (P02930 23-493): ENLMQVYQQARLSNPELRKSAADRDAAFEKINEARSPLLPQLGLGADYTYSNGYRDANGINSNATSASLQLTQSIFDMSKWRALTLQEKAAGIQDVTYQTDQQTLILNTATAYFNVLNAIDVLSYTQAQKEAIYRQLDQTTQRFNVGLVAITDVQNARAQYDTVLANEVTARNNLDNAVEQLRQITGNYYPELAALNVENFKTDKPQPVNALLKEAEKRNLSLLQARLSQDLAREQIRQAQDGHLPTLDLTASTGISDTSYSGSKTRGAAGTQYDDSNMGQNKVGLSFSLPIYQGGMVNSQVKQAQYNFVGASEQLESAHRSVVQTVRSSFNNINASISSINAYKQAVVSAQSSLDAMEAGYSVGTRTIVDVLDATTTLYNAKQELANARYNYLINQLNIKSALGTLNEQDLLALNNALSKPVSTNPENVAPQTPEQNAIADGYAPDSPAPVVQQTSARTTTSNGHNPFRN

Sequence of CorA of Salmonella typhimurium (P0A2R8 whole entry): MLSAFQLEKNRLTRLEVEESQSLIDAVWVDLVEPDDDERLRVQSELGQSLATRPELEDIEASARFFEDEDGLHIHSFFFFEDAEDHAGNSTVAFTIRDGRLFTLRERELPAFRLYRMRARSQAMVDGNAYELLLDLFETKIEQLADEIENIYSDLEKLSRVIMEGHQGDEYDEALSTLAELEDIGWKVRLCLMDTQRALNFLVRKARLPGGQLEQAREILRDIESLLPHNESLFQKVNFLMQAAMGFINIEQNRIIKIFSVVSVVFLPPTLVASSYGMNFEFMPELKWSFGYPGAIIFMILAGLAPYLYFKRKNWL
Sequence of MgtB Mg transporter (P22036 whole entry): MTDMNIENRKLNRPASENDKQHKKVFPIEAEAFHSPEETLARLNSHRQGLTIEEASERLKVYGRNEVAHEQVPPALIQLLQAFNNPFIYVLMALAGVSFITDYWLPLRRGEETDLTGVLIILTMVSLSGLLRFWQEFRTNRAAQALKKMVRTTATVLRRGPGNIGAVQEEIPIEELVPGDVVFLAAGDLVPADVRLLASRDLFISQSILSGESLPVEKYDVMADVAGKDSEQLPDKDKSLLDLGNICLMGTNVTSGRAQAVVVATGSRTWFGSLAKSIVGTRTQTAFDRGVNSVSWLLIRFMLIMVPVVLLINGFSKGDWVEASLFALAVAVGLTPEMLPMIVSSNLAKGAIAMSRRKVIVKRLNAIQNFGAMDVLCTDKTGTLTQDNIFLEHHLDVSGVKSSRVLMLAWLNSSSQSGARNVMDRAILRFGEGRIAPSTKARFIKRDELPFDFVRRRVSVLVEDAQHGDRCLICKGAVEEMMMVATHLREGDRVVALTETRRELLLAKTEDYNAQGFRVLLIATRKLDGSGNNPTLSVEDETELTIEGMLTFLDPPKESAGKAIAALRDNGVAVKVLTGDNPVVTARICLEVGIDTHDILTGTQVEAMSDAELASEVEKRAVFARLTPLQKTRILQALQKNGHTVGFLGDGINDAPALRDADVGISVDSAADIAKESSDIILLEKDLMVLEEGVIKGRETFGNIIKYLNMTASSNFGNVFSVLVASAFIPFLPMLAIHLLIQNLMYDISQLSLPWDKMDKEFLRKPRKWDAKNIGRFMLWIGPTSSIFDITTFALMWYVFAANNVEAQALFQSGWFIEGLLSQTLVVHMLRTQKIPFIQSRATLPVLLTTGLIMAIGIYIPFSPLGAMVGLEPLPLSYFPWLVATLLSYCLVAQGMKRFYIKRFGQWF
Sequence of CorA of Methanococcus jannaschii (Q58439 whole entry): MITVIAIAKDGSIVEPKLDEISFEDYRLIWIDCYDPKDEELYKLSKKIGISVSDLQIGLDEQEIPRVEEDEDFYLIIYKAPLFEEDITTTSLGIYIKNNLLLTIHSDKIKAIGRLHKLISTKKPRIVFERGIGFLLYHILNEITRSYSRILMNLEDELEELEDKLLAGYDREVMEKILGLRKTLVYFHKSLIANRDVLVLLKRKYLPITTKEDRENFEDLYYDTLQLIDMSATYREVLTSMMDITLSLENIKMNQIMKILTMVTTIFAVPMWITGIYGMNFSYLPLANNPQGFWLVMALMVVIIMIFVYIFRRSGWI

hexamminecobalt (III) chloride [Cohex]
kind of inhibition of the bacterial growth [1]: bacteriostatic rather than bacteriocidal
kind of inhibition of the bacterial growth (Francisella philomiragia): bacteriostatic rather than bacteriocidal
effect of the presence of Cohex on potency of the antibiotic drugs (bacterial growth [2]): increased the potency of the drugs up to about an order of magnitude
effect on bacterial growth (bacterial growth [2]): no effect on bacterial growth
zone of inhibition, interaction with tetracycline (lawn of E. coli): synergistic effect
CC50 (BHK cells): ~3200 µM
toxicity to mice [3]: not to be highly toxic
effect on bacterial growth (bacterial growth [4]): prevents bacterial growth at micromolar concentrations
inhibition of 63Ni2+ uptake [5]: inhibited
Ki ([5]; corresponding to the IC50, species not given): 0.5 µM
inhibition of 63Ni2+ uptake [6]: inhibited
inhibition of growth [7]: inhibited the growth
inhibition of alternate pathways of Mg2+ transport (MgtB Mg transporter): does not inhibit
Cohex ions bound per trimeric TolC (TolC (E. coli)): ~1
